For one assay, the target named is elastase. To be noted: cited from earlier work.
A further assay deals with mushroom tyrosinase. Kind of assay: Tyrosinase inhibition assay (DOPA-chrome formation method). Type of assay: biochemical, Agaricus bisporus. As to the method:
Tyrosinase inhibition was determined using the DOPA-chrome formation method as described previously with slight modifications. […] They were preincubated for 10 min at room temperature. Reactions were initiated by adding 4 μL aliquots of 10 mM L-DOPA to each well and incubating at 37 °C for 20 min. Tyrosinase activity was then determined by measuring absorbance at 475 nm. […] Experiments were performed in triplicate.

Assay [1] concerns the target porcine pancreatic elastase (Sus scrofa, UniProt P00772).
Protocol: Elastase inhibition assay was performed as described previously with some modifications[32]. Briefly, in Nunc-96 well microtiter plates, 20-µL aliquots of 0.8-units/mL PPE in Trizma® base buffer (pH 8.0) were mixed with 20-µL samples, and the mixtures were then diluted to 180 µL in Trizma® base buffer. Test extracts were preincubated with enzyme for 15 min, and 20-μL aliquots of the substrate N-succinyl-Ala-Ala-Ala-p-nitroanilide (A3PVN; 2.9 mM) were added and incubated for another 15 min. Positive control and blank wells contained oleanolic acid and water, respectively. Experiments were conducted in triplicate, and inhibition rates were determined according to absorbance at 401 nm using a VersaMax microplate reader.
Percentage inhibition was calculated using the following equation: Elastase inhibition%=1-T-Tb/E-Eb×100, where E is the absorbance of the enzyme reaction, Eb is the absorbance of the enzyme blank, T is the absorbance of the test sample, and Tb is the absorbance of the test blank.

The values below come from article PMC8516952, “Two triterpenoids from Rubus fraxinifolius leaves and their tyrosinase and elastase inhibitory activities” (Scientific Reports, 2021).

Converted amounts (≈) assume the structure as drawn.

porcine pancreatic elastase, sequence (P00772 27-266): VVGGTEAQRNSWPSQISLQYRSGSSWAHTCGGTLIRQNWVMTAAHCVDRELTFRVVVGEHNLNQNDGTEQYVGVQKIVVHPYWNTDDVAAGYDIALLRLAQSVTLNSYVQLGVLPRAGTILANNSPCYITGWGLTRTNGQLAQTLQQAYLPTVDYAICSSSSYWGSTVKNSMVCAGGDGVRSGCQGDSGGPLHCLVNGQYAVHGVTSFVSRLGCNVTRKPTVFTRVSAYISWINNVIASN

In the case of `C[C@H]1[C@H](C)CC[C@]2(C(=O)O)CC[C@]3(C)C(=CC[C@@H]4[C@@]5(C)CC[C@H](O)C(C)(C)[C@@H]5CC[C@]43C)[C@H]12` [ursolic acid], at elastase, the “IC50 elastase inhibition (previous studies)” value is 31.0 µg/mL (≈ 67.9 µM).
On to `C[C@@H]1CC[C@]2(C(=O)O)CCC3(C)C(=CCC4C3(C)CCC3C(C)(C)[C@H]5OCCCO[C@@H]5C[C@@]34C)C2[C@]1(C)O` (stereo partly shown) [Compound 2, 2,3-O-Propanediol, 19-hydroxyurs-12-en-28-oic acid], for which, in the assay on mushroom tyrosinase, the “Activity as tyrosinase inhibitors (in words)” value is “moderate activities” and the IC50 tyrosinase inhibition was found to be 221.51 µg/mL (≈ 419 µM). The molecule further had an IC50 in assay [1] of 186 µM.
As for `C[C@@H]1CC[C@]2(C(=O)O)CCC3(C)C(=CCC4C3(C)CCC3C(C)(C(=O)O)[C@H]5OCCO[C@@H]5C[C@@]34C)C2[C@]1(C)O` (stereo partly shown) [Compound 1, 2,3-O-ethylene glycol, 19-hydroxyurs-12-en-23,28-dioic acid], in the assay on mushroom tyrosinase, the “Activity as tyrosinase inhibitors (in words)” value is listed as “moderate activities” and the IC50 tyrosinase inhibition stood at 207.79 µg/mL (≈ 381 µM). The molecule also gave an IC50 in assay [1] of 224 µM.

By IC50 is commonly meant the concentration needed to halve the response being measured. High values mean weaker potency, low ones greater potency.
